# According to patent publication US7238469B2, “Carbon monoxide improves outcomes in tissue and organ transplants and suppresses apoptosis” (priority 2001, dated 2007):
# Where “and” joins values, the source holds several entries; their conditions need not be identical. Equal values may be shown once. Where a name gives a salt, the structure may show the parent alone. Residues, ends and D or L forms follow the SMILES beside them.
# Key:
# [1] = tested on: islet cell grafts; assay: Islet graft survival after induction of HO-1 by CoPP in donors and recipients; format: in vivo, mouse; settings: 350–400 islets; for Rejection day: individual recipients
# Description: Whether induction of HO-1 in donors and recipients would protect islet cell grafts was investigated. The following procedures were utilized to generate the data illustrated in Table 1, below. A mouse model was utilized for the experiments. Donors of islet cells were treated with cobalt protoporphyrin (CoPP) (20 mg/kg) once per day before islet cell isolation. Recipients of islet cell grafts were treated with CoPP (20 mg/kg) once per day on days 1, 3, 5, 7 or with CoPP (10 mg/kg) once per day on days 1, 3, 5, 7, 9, 11, 13, 15, and 17. Treatment with CoPP induces expression of heme oxygenase-1 (HO-1).
# Listed under “rejection day” are the days to which islets survived. For instance, “>51×2”, means that islets in 2 recipients were still surviving after 51 days. The mean date of rejection is shown in the fourth column.
# [2] = tested on: rat platelets overlaid on mouse 2F–2B endothelial cells; assay: Platelet aggregation assay, platelets overlaid on pretreated endothelial cells; format: cell-based; settings: endothelial cells pretreated with protoporphyrin 50 μM; ADP 2 μM
# Description: Mouse 2F–2B endothelial cells were cultured on 0.2% gelatin (Sigma) coated six-well plates in 88% DMEM (Life Technologies), 10% FCS (FCS), 100 U/ml penicillin, and 100 îg/ml streptomycin (Life Technologies). Confluent endothelial cells either were left untreated or were treated with the HO-inducing agent CoPPIX (50 îM; 18 h), the HO inhibitor SnPPIX (50 îM, 18 h), or both CoPPIX (50 îM, 15 h) and SnPPIX (50 îM, 3 h). Platelet-rich plasma was obtained by centrifugation (290-g, 12 min, 19° C.) of normal rat […] in 3.8% sodium citrate. Rat platelets (3–10^8 cells ml) were resuspended in HT buffer (8.9 mM NaHCO3, 0.8 mM KH2PO, 5.6 mM dextrose, 2.8 mM KCl solution, 0.8 mM MgCl2, 129 mM NaCl, 10 mM HEPES). Platelets were overlaid (5 min; 37° C.) on mouse endothelial cells, and platelet aggregation assays were conducted as described before (Kaczmarek et al, J. Biol. Chem. 271:33116, 1996) by using an aggregometer (Chrono-Log, Harestown, Pa.) and ADP (0.5–4 μM) as an agonist.
# [3] = tested on: HO-1; assay: Western blot of HO-1 expression in cultured endothelial cells; format: cell-based, mouse; settings: data not shown
# Description: Endothelial cells were washed in PBS (pH 7.2), harvested by scraping, and lysed in Laemmli buffer. Electrophoresis was conducted under denaturing conditions with 10% polyacrylamide gels. Proteins were transferred onto a polyvinyldifluoridine membrane (immobilon P; Millipore, Bedford, Mass.) by electroblotting and detected with rabbit polyclonal Abs directed against human HO-1 or HO-2 (StressGen, Victoria, Canada) or é-tubulin (Boehringer Mannheim, Mannheim, Germany). Proteins were visualized by using HRP-conjugated donkey anti-rabbit IgG or goat anti-mouse IgG (Pierce) and the ECL assay (Amersham Life Science, Arlington Heights, Ill.) according to manufacturer's instructions.
# [4] = tested on: 2F–2B ECs; format: cell-based, murine
# Description: The murine 2F–2B endothelial cell line (ATCC) was transiently transfected as described elsewhere (Soares et al., Nature Med. 4:1073, 1998; Brouard et al, J. Exp. Med. 192:1015, 2000). All experiments were conducted 24–48 h after transfection. é-galactosidase-transfected cells were detected as described elsewhere (Soares et al., Nature Med. 4:1073, 1998; Brouard et al., J. Exp. Med. 192:1015, 2000). Percentage of viable cells was assessed by evaluating the number of é-galactosidase-expressing cells that retained normal morphology as described elsewhere (Soares et al., Nature Med. 4:1073, 1998; Brouard et al., J. Exp. Med. 192:1015, 2000). The number of random fields counted was determined to have a minimum of 200 viable transfected cells per control well. The percentage of viable cells was normalized for each DNA preparation to the number of transfected cells counted in the absence of the apoptosis-inducing agent (100% viability). All experiments were performed at least three times in duplicate. Actinomycin D (Act. D; Sigma) was dissolved in PBS and added to the culture medium (10 îg/ml) 24 h after transfection. SnPPIX (Porphyrin Products) was dissolved (10 îM) in 100 mM NaOH and conserved at −20° C. until used. SNPPIX was added to the culture medium (50 îM) 6 h after transfection. Human recombinant TNF-α (R&D Systems, Minneapolis, Minn.) was dissolved in PBS, 1% BSA, and added to the culture medium (10–100 ng/ml) 24 h after transfection.
# Cells were exposed to compressed air or varying concentration of CO (250 and 10,000 ppm), as described elsewhere (Otterbein et al., Nature Med. 6:422, 2000; and Brouard et al., J. Exp. Med. 192:1015, 2000).
# BAECs and 2F–2B ECs were transiently transfected. All experiments were carried out 24–48 h after transfection. The percentage of viable cells was assessed by evaluating the number of β-galactosidase-expressing cells that retained normal morphology. The number of random fields counted was determined to have a minimum of 200 viable transfected cells per control well. The percentage of viable cells was normalized for each DNA preparation to the number of transfected cells counted in the absence of the apoptosis-inducing agent (100% viability). All experiments were performed at least three times in duplicate.
# Actinomycin D (Act.D; Sigma-Aldrich) was dissolved in PBS and added to the culture medium 24 h after transfection. The Act.D concentration used corresponded to the optimal concentration necessary to sensitize ECs to TNF-α mediated apoptosis, e.g., 10 μg/ml for 2F–2B ECs and 0.1 μg/ml for BAECs. When indicated, EC apoptosis was induced by etoposide (200 μM, 8 h; Calbiochem-Novabiochem) or by serum deprivation (0.1% FCS for 24 h). The iron chelator deferoxamine mesylate (DFO; Sigma-Aldrich) was dissolved in water and added to culture medium (1–100 μM) 1 h before the induction of apoptosis. Hemoglobin (Hb; Sigma-Aldrich) was dissolved (1 mM) in PBS, 10 mM Na2S2O4, dialyzed against PBS (2 h, 4° C., 1:800 dilution), and added to the culture medium (1–100 μM) 6 h after transfection. The guanylcyclase inhibitor 1H(1,2,4)oxadiazolo(4,3)quinoxalin-1 (ODQ; Calbiochem-Novabiochem) was dissolved in DMSO (Sigma-Aldrich) and added to the culture medium (10–100 μM) 6 h after transfection. Iron protoporphyrin ([FePP]/heme), cobalt protoporphyrin (CoPPIX), and tin protoporphyrin (SnPPIX; all from Porphyrin Products, Inc.) were dissolved (10 mM) in 100 mM NaOH and held at −20° C. until use. Metalloporphyrins were added to the culture medium (50 μM) 6 h after transfection. The cGMP analogue 8-bromo-cGMP sodium salt (8-Br-cGMP; Sigma-Aldrich) was dissolved in water and added to the culture medium (10–100 µM) 30 min before the induction of apoptosis. Human recombinant TNF- (R&D Systems) was dissolved in PBS and 1% BSA, and added to the culture medium (10–100 ng/ml) 24 h after transfection.
# Cells were exposed to compressed air from a compressed air tank or varying concentrations of CO (250 and 10,000 ppm).
# [5] = tested on: βTC3 cells; assay: TNF-α mediated apoptosis of β-gal transfected βTC3 cells (percentage of viable cells); format: cell-based, murine; settings: for inhibition of TNF-α mediated apoptosis: TNF-α 24 hours, inhibitor added two hours before TNF-α (Z-DEVD-FMK 10 μM, IETD-CHO 1 μM)
# Description: The murine insulinoma cell line βTC3 (DSMZ, Braunschweig, Germany) was cultured in Dulbecco's Modified Eagle's Medium (DMEM) (Life Technologies, Grand Island, N.Y., USA) supplemented with 2 mM L-glutamine, 100 U/ml penicillin G, 100 U/ml streptomycin and 10% Fetal Calf Serum (FCS) (Life Technologies) and incubated in humidified 5% CO2/95% air at 37° C. This murine β-cell line, derived from transgenic mice carrying a hybrid insulin-promoter simian virus 40 tumor antigen, is known to maintain the features of differentiated β-cells for about 50 passages in culture. […] Compared to other frequently used transformed β-cell lines such as RIN-m5F and HIT, levels of secreted insulin are closer to normal β-cells in the βTC3 cell line. Thus, these cells are useful for studying β-cell regulation and gene expression (D'Ambra et al., Endocrinology 726:2815–22, 1990).
# βTC3 were seeded at 3×10^5 cells in 16 mm wells and transfected 15 to 20 hours later using Lipofectamine plus™ reagents (Life Technologies) according to the manufacturer's instructions. Total DNA was maintained constant using empty pcDNA3 vector. The percentage of viable cells was assessed by normalizing the percentage of viable cells of each DNA preparation to the number of control-transfected cells without the apoptotic stimulus (100% viability) (Soares et al., Nature Med. 4:1073–1077, 1998; Sato et al., J. Immunol. 166:4185–4194, 2001).
# Murine recombinant TNF-α (R&D Systems) was dissolved in PBS with 1% bovine serum albumin and added to the culture medium (17.5 ng/ml=500 U) 24 hours after transfection. The caspase-3 inhibitor Z-DEVD-FMK and the caspase-8 inhibitor IETD-CHO (Calbiochem, San Diego, Calif.) were dissolved in dimethyl sulphoxide (DMSO, Sigma) and added to the culture medium (10 μM and 1 μM respectively) two hours before treatment with TNF-α. Tin protoporphyrin (SnPPIX) (Porphyrin Products, Logan, Utah) was dissolved (10 mM) in 100 mM NaOH and added 6 hours after transfection to the culture medium (50 μM). The guanylyl cyclase inhibitor 1H[1,2,4]oxadiazolo[4,3-α]quinoxalin-1 (ODQ; Calbiochem) was dissolved in DMSO and added to the culture medium (100 μM) 6 hours after transfection. The cGMP analogue 8-bromoguanosine-3′-5′-cyclic-monophosphate (8-Br-cGMP) (Sigma) was dissolved in water and added to the culture medium (10 μM) 30 minutes before induction of apoptosis. The protein kinase G inhibitor KT5823 (Calbiochem) was dissolved in DMSO and added to the culture medium (1.6 μM) 6 hours after transfection.
# Cells and islets were exposed to 1% carbon monoxide in compressed air balanced with 5% CO2, as described elsewhere (see, e.g., Otterbein et al., Nature Med. 6:422–428, 2000). Islets were incubated in RPMI medium pre-saturated with carbon monoxide (4° C. overnight, 1% CO, 5% CO2) for two hours at 37° C. while treatment with 1% CO, 5% CO2 was continued.
structure (smiles),measurement,setting,value
"C=CC1=C(C)c2cc3[n-]c(cc4nc(cc5[n-]c(cc1n2)c(C)c5CCC(=O)[O-])C(CCC(=O)[O-])=C4C)c(C)c3C=C.[Co+2].[H+].[H+] [CoPP, cobalt protoporphyrin]",Rejection day Mean ± SD,[1]; CoPP 10 mg/kg × 10,40.5 ± 12.12 days
same,Rejection/Total,[1]; CoPP 10 mg/kg × 10,2/4
same,Rejection day,[1]; CoPP 10 mg/kg × 10,> 51 days
same,Rejection day Mean ± SD,[1]; CoPP 20 mg/kg × 5,44.85 ± 17.81 days
same,Rejection/Total,[1]; CoPP 20 mg/kg × 5,4/7
same,Rejection day,[1]; CoPP 20 mg/kg × 5,">58 × 2, day and >67 × 1 day"
same,platelet aggregation on stimulation by ADP,[2],platelet aggregation was significantly inhibited
same,expression of HO-1 in cultured endothelial cells,[3],up-regulated the expression of HO-1
same,effect of protoporphyrin on the antiapoptotic effect of HO-1,"[4]; HO-1 transfected ECs, protoporphyrin 50 μM",did not suppress the antiapoptotic effect of HO-1 or that of bcl-2
"CC(=O)N(O)CCCCCNC(=O)CCC(=O)N(O)CCCCCNC(=O)CCC(=O)N(O)CCCCCN [DFO, deferoxamine mesylate]",effect on EC apoptosis when HO-1 activity was inhibited by SnPPIX or the action of CO suppressed by Hb,[4]; DFO,still able to prevent EC apoptosis
same,effect on EC apoptosis under inhibition of HO activity by SnPPIX,[4]; DFO 100 μM alone,"suppressed EC apoptosis, but to a lesser extent than HO-1"
same,effect on EC apoptosis induced by TNF-α plus Act.D,[4]; DFO 1–100 μM,suppressed
CC[C@H](C)[C@H](NC(C)=O)C(=O)N[C@@H](CCC(=O)O)C(=O)N[C@H](C(=O)N[C@H](C=O)CC(=O)O)[C@@H](C)O [IETD-CHO] (Ac-IETD-aldehyde),inhibition of TNF-α mediated apoptosis,[5],96%
COC(=O)[C@@]1(OC)C[C@H]2O[C@]1(C)n1c3ccccc3c3c4c(c5c6ccccc6n2c5c31)C(=O)N(C)C4 [KT5823],effect on the anti-apoptotic effect of exogenous CO,"[5]; TNF-α, 1% CO, ODQ 100 μM, KT5823 1.6 μM",suppressed the anti-apoptotic effect of exogenous carbon monoxide
C[S+]([O-])c1ccc(-c2nc(-c3ccncc3)c(-c3ccc(F)cc3)[nH]2)cc1 (stereo not shown) [SB203580],effect on the antiapoptotic action of HO-1,"[4]; SB203580 10–20 μM, dose dependent",antiapoptotic action of HO-1 is suppressed
COC(=O)CC[C@H](NC(=O)[C@H](CC(=O)OC)NC(=O)OCc1ccccc1)C(=O)N[C@H](C(=O)N[C@@H](CC(=O)OC)C(=O)CF)C(C)C [Z-DEVD-FMK],inhibition of TNF-α mediated apoptosis,[5],53%
